Results published in patent publication US9408828B2, “(+)-3′-angeloyloxy-4′-keto-3′,4′-dihydroseselin for treating inflammation” (Hong Kong Baptist University, priority 2014, dated 2016).

Legend:
DSS-induced colitis = assay: Chronic DSS-induced colitis in mice (body weight, DAI, colon length, histology); format: in vivo, C57BL/6 mice
Description: 6-week-old male C57BL/6 mice weighing 18-20 g are purchased from the Laboratory Animal Services Center, the Chinese University of Hong Kong. The study protocols are approved by the committee for Care of Laboratory Animals in the School of Chinese Medicine at the Hong Kong Baptist University. The animals are divided into six groups (8-10 each group): control group (mice received drinking water and control diet), DSS-treated group (mice received 2.0% DSS in drinking and control diet), positive control group (mice received 2.0% DSS in drinking and ip, 300 mg/kg/day of sulfasalazine), Pd-Ib treatment groups will be given different dosed of Pd-Ib (mice received 2.0% DSS in drinking and i.p., 30, 60, or 120 mg/kg/day, respectively). As depicted in experiment design shown in FIG. 9, the mice are given tap water for 6 days, and then be divided into 6 groups. DSS is dissolved in distilled water at a concentration of 2% (w/v) and administered to the mice. The first day and the last day of DSS treatment are designated as day 7 and day 11, respectively. Mice are marked and checked daily for body weight. On day 12, body weight, stool consistency, and gross bleeding of each mouse are assessed, and animals showing body weight loss, diarrhea, and bleeding are selected for further analysis. All colitis mice are then interventions once daily for seven days, with eight mice in each group. The DSS model group is administered with tap water as negative control; while sulfasalazine is given as positive control (i.p., 300 mg/kg/day) and Pd-Ib treatment groups are given different doses of Pd-Ib (i.p., 30, 60, or 120 mg/kg/day, respectively). In parallel, a vehicle control group is also set up to receive drinking tap water without DSS throughout the entire experimental period. On day 19, after the mice are killed under anesthesia induced by pentobarbital sodium (i.p., 0.65 g/kg), the length of the large intestine is measured. All portions are stored at −80° C. for biochemical assays. The DAI is determined by scoring changes in the body weight, diarrhea, colon length, and bleeding. In brief, body weight, stool consistency, colon length and bleeding in the stool are monitored daily for determination of DAI. At the end of the experiment, mice are killed, and the colon is dissected from each mouse, and the length of which is measured from the ileocecal junction to the anal verge. The colons are opened longitudinally, gently washed with ice-cold PBS, fixed in 4% paraformaldehyde overnight, and embedded in paraffin. Five-micro-meter sections are stained with hematoxylin/eosin according to a standard procedure to evaluate colonic damage. Colitis is induced in all groups except the control group. Pd-Ib and sulfasalazine are administered to mice from day 6 to day 12. The change in body weight is taken as the difference between the body weight before induction of colitis and that immediately before sacrifice on day 13. The DAI score is determined by combining scores of (i) body weight loss, (ii) stool consistency, and (iii) stool bleeding. On day 13, the mice are sacrificed, and the colon lengths are measured. Data are expressed as mean±SEM, n=8 (^###p<0.001, compared with the control group; *p<0.05, **p<0.01, ***p<0.001, compared with DSS model group).

COX-2 = assay: Western blot of COX-2 protein in LPS-stimulated RAW-Blue cells; format: cell-based, murine; conditions: LPS 1 μg/mL, 5, 10, 20 μg/mL, 20 h
Description: Data are derived from three independent experiments and presented as mean±SEM. ^#Compared with control group. *P<0.05, **P<0.01 and ***P<0.001 are compared with LPS-alone group.
After Raw-Blue cells are treated with LPS and Pd-Ib, whole cell extract is prepared with lysis buffer [1% Triton X-100, 0.1% SDS, 0.5% deoxycholate, 1 mM EDTA, 20 mM Tris (pH 7.4), 150 mM NaCl, 10 mM NaF, 1 mM Na3VO4, 0.1 mM phenylmethylsulfonyl fluoride and one protease inhibitor cocktail tablet (Roche, USA)]. Total protein concentration is measured using a protein assay kit, followed by centrifugation at 13,500 rpm for 15 minutes at 4° C., then 10-25 μg of protein from the supernatants is then separated on 10% sodium dodecylsulphate-polyacrylamide gel (SDS-PAGE) and transferred on to polyvinylidene difluoride membranes. After blocking with 5% skim milk powder in Tris-buffered saline-Tween (TBST; 50 mM Tris, 150 mM NaCl, pH 7.4; 0.01% Tween-20) for 1 hour at room temperature, the membrane is then incubated with primary antibody (1:5,000 dilution) in 5% skim milk in TBST overnight at 4° C. […] The membrane is rewashed (TBST; 3×10 min), and the immune-reactive proteins are detected by enhanced chemiluminescence using X-ray film and ECL reagent. The protein bands are quantified by measuring the relative intensity compared to the control using Image J Software (version 4.1.7, NIH, USA).

[1] = test system: nitric oxide (NO) production in LPS-stimulated RAW-Blue cells; assay: Nitric oxide production determination (Griess reagent); format: cell-based, murine; conditions: Mus musculus, LPS 1 μg/mL 20 hours
Description: After macrophages are treated with 1 μg/mL of LPS in absence or presence various concentrations of Pd-Ib (5, 10, 20 μg/mL) for 20 hours, the mRNA levels of iNOS (A), TNF-α (B) and IL-1β (C) are determined by real time PCR, while the production of NO (D) is determined by Griess reagent. Data are derived from three independent experiments and presented as mean±SEM, “con” stands for the vehicle control group. ^#Compared with control group. *P<0.05, **P<0.01 and ***P<0.001 are compared with LPS-alone group.
Nitric oxide (NO) production is indirectly assessed by measuring the nitrite levels in the cultured medium determined by a colorimetric method based on the Griess reagent and sodium nitrite as a standard substance. The cells are pretreated with various concentrations of Pd-Ib (5-20 μg/mL). Two hours later, cells are incubated for another 20 hours in the presence of LPS (1 μg/mL) at 37° C. Then, 100 μL of each supernatant is mixed with the equal volume of Griess reagent. The samples are incubated at room temperature for 15 min. The optical densities are measured at 540 nm with a micro-plate reader and nitrite concentration is determined using a standard curve generated with known concentrations of sodium nitrite.

C/C=C(\C)C(=O)OC1C(=O)c2c(ccc3ccc(=O)oc23)OC1(C)C (single isomer, unassigned; (+)) [Pd-Ib, (+)-3′-Angeloyloxy-4′-keto-3′,4′-dihydroseselin]
body weight loss (DSS-induced colitis; 30 mg/kg/day): mildly effective in preventing body weight loss
body weight loss (DSS-induced colitis; 60 mg/kg/day): mildly effective in preventing body weight loss
body weight loss (DSS-induced colitis; 120 mg/kg/day, compared with DSS model group after 10 days (p<0.05)): recover the body weight loss significantly
DAI score (DSS-induced colitis; 120 mg/kg/day, versus untreated mice (p<0.05)): significantly lower
shortening of colon length (DSS-induced colitis; 30, 60, 120 mg/kg/day (p<0.05, p<0.001)): rectified after administration with Pd-Ib at indicated concentration levels in a dose-dependent manner
histological manifestation of colon tissue sections (DSS-induced colitis; 30, 60, 120 mg/kg/day for seven days, compared with DSS group): far fewer infiltrating cells, a significantly lower degree of mucosal injury, and less edema
COX-2 protein level (COX-2): strongly down-regulates
inhibition at 5 µg/mL ([1]; 5 μg/mL): 17.6 ± 2.96%
inhibition at 10 µg/mL ([1]; 10 μg/mL): 29.8 ± 1.34%
inhibition at 20 µg/mL ([1]; 20 μg/mL): 55.5 ± 1.15%
